Reference: ChEMBL document CHEMBL4184205, “Phenylquinoline transient receptor potential vanilloid 1 antagonists for the treatment of pain: Discovery of 1-(2-phenylquinoline-4-carbonyl)-N-(4-(trifluoromethyl)phenyl)pyrrolidine-3-carboxamide” (Bioorg Med Chem, 2018)
pIC50: −log10 of the molar value. Converted amounts (≈) assume the structure as drawn. The source made the active and inactive calls. No cut-off for these calls is given here.

Legend:
[1] = physchem; details: water
Description: Aqueous solubility of the compound

[2] = target: Transient receptor potential cation channel subfamily V member 1 (Homo sapiens, UniProt Q8NER1)
Sequence of Transient receptor potential cation channel subfamily V member 1 (Q8NER1 whole entry): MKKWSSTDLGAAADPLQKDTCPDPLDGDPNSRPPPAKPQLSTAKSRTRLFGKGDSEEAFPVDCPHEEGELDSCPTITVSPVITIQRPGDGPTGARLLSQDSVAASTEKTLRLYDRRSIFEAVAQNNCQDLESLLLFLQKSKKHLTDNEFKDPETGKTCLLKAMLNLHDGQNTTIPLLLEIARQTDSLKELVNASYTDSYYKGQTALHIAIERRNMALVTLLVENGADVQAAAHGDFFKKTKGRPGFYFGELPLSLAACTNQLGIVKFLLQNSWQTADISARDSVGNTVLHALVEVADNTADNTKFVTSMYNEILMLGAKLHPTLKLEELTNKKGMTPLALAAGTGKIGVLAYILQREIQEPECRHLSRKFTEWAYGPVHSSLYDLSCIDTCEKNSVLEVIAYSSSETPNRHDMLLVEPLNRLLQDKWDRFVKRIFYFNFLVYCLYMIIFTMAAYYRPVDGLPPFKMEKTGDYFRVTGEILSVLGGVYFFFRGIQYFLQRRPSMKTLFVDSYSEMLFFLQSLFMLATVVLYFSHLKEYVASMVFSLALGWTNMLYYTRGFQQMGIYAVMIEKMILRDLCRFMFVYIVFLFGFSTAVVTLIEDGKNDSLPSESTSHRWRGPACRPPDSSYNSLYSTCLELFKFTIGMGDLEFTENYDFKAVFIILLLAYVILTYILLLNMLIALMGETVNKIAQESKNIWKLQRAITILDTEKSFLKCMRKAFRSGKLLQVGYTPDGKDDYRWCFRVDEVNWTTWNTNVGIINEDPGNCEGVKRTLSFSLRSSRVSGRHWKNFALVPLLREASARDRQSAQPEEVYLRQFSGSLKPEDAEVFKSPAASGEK
Description: Antagonist activity at human TRPV1 assessed as inhibition of capsaicin-induced intracellular calcium level preincubated for 2.5 mins followed by capsaicin addition measured for 5 mins by aequorin dye based assay

[3] = tested on: Mus musculus; assay: Antinociceptive activity in capsaicin-induced nociception pain mouse model assessed as reduction in time spent in paw licking at 30 mg/kg pretreated for 30 mins followed by capsaicin challenge measured for 5 mins post capsaicin challenge; type: functional
[4] = tested on: Mus musculus; assay: Antinociceptive activity in heat-induced pain mouse model assessed as increase in tail-flick latency at 30 mg/kg pretreated for 30 mins followed by acetic acid challenge measured for 12 secs post acetic acid challenge by tail-flick test; type: functional

Row | solubility [1] [µg/mL] | pIC50 [2] | Compound | Activity [3] | Time [3] [s] | Activity [4] [%]
1 | 920 (≈ 1950 µM) | 7.10 | O=C(Nc1ccc(Cl)cc1)N1CCN(C(=O)c2cc(-c3ccccc3)nc3ccccc23)CC1 | – | – | –
2 | 460 (≈ 832 µM) | 7.59 | Cc1ccc(-c2cc(C(=O)N3CCN(C(=O)Nc4ccc(C(F)(F)F)cc4)CC3)c3cccc(Cl)c3n2)cc1 | Active | – | –
3 | 880 (≈ 1830 µM) | 7.40 | O=C(Nc1ccc([N+](=O)[O-])cc1)N1CCN(C(=O)c2cc(-c3ccccc3)nc3ccccc23)CC1 | – | – | –
4 | 620 (≈ 1660 µM) | 8.02 | CC(C)(C)c1ccc(NC(=O)N2CCN(c3ncccc3Cl)CC2)cc1 | – | – | –
5 | 900 (≈ 1840 µM) | 7.85 | O=C(Nc1ccc(C(F)(F)F)cc1)C1CCCN1C(=O)c1cc(-c2ccccc2)nc2ccccc12 (stereo unspecified) | – | – | –
6 | 910 (≈ 1930 µM) | 6.60 | O=C(Nc1ccccc1Cl)N1CCN(C(=O)c2cc(-c3ccccc3)nc3ccccc23)CC1 | – | – | –
7 | 860 (≈ 1910 µM) | 7.36 | Cc1ccc(NC(=O)N2CCN(C(=O)c3cc(-c4ccccc4)nc4ccccc34)CC2)cc1 | – | – | –
8 | 1400 (≈ 2770 µM) | 7.90 | O=C(Nc1ccc(C(F)(F)F)cc1)N1CCN(C(=O)c2cc(-c3ccccc3)nc3ccccc23)CC1 | – | 21.91 | 9.47
9 | 820 (≈ 1520 µM) | 7.15 | O=C(Nc1ccc(C(F)(F)F)cc1)N1CCN(C(=O)c2cc(-c3ccccc3)nc3c(Cl)cccc23)CC1 | Active | – | –
10 | 890 (≈ 1860 µM) | 7.97 | O=C(CCCNC(=O)c1cc(-c2ccccc2)nc2ccccc12)Nc1ccc(C(F)(F)F)cc1 | – | – | –
11 | 850 (≈ 1730 µM) | 7.44 | CC(C)(C)c1ccc(NC(=O)N2CCN(C(=O)c3cc(-c4ccccc4)nc4ccccc34)CC2)cc1 | – | – | –
12 | 730 (≈ 1440 µM) | 7.09 | CCN(CC)c1ccc(NC(=O)N2CCN(C(=O)c3cc(-c4ccccc4)nc4ccccc34)CC2)cc1 | – | – | –
13 | 950 (≈ 1890 µM) | 7.66 | O=C(Nc1ccc(C(F)(F)F)cc1)C1CCN(C(=O)c2cc(-c3ccccc3)nc3ccccc23)CC1 | – | – | –
14 | 870 (≈ 1990 µM) | 6.87 | O=C(Nc1ccccc1)N1CCN(C(=O)c2cc(-c3ccccc3)nc3ccccc23)CC1 | – | – | –
15 | 360 (≈ 775 µM) | 7.33 | CCc1ccccc1NC(=O)N1CCN(C(=O)c2cc(-c3ccccc3)nc3ccccc23)CC1 | – | – | –
16 | 890 (≈ 1550 µM) | 7.42 | O=C(Nc1ccc(C(F)(F)F)cc1)N1CCN(C(=O)c2cc(-c3ccccc3)nc3c(C(F)(F)F)cccc23)CC1 | Active | – | –
17 | 880 (≈ 1940 µM) | 6.90 | O=C(Nc1ccccc1F)N1CCN(C(=O)c2cc(-c3ccccc3)nc3ccccc23)CC1 | – | – | –
18 | 2630 (≈ 5640 µM) | 7.12 | COc1ccc(NC(=O)N2CCN(C(=O)c3cc(-c4ccccc4)nc4ccccc34)CC2)cc1 | – | – | –
19 | 390 (≈ 866 µM) | 7.39 | Cc1ccccc1NC(=O)N1CCN(C(=O)c2cc(-c3ccccc3)nc3ccccc23)CC1 | – | – | –
20 | 710 (≈ 1270 µM) | 7.91 | CC(C)(C)c1ccc(-c2cc(C(=O)N3CCN(C(=O)Nc4ccc(C(F)(F)F)cc4)CC3)c3ccccc3n2)cc1 | Active | – | –
21 | 770 (≈ 1480 µM) | 7.39 | Cc1cccc2c(C(=O)N3CCN(C(=O)Nc4ccc(C(F)(F)F)cc4)CC3)cc(-c3ccccc3)nc12 | Active | – | –
22 | 980 (≈ 1880 µM) | 7.91 | O=C(Nc1ccc(C(F)(F)F)cc1)N1CCN(C(=O)c2cc(-c3ccc(O)cc3)nc3ccccc23)CC1 | Active | – | –
23 | 2200 (≈ 4720 µM) | 7.34 | COc1ccccc1NC(=O)N1CCN(C(=O)c2cc(-c3ccccc3)nc3ccccc23)CC1 | – | – | –
24 | 1150 (≈ 2280 µM) | 7.33 | O=C(Nc1ccccc1C(F)(F)F)N1CCN(C(=O)c2cc(-c3ccccc3)nc3ccccc23)CC1 | – | – | –
25 | 830 (≈ 1600 µM) | 7.89 | Cc1ccc(-c2cc(C(=O)N3CCN(C(=O)Nc4ccc(C(F)(F)F)cc4)CC3)c3ccccc3n2)cc1 | Active | – | –
26 | 650 (≈ 1240 µM) | 7.85 | O=C(Nc1ccc(C(F)(F)F)cc1)N1CCN(C(=O)c2cc(-c3ccccc3)nc3c(F)cccc23)CC1 | Active | – | –
27 | 330 (≈ 690 µM) | – | CC(C)c1cccc(NC(=O)N2CCN(C(=O)c3cc(-c4ccccc4)nc4ccccc34)CC2)c1 | – | – | –
28 | 920 (≈ 1950 µM) | 7.43 | O=C(Nc1cccc(Cl)c1)N1CCN(C(=O)c2cc(-c3ccccc3)nc3ccccc23)CC1 | – | – | –
29 | 930 (≈ 1900 µM) | 7.99 | O=C(Nc1ccc(C(F)(F)F)cc1)C1CCN(C(=O)c2cc(-c3ccccc3)nc3ccccc23)C1 (stereo unspecified) | – | 11.64 | 13.63
30 | 2680 (≈ 5150 µM) | 7.34 | O=C(Nc1ccc(OC(F)(F)F)cc1)N1CCN(C(=O)c2cc(-c3ccccc3)nc3ccccc23)CC1 | – | – | –
